Test results: ChEMBL document CHEMBL2163286, “1,2,3,4-tetrahydroquinoline-based selective human neuronal nitric oxide synthase (nNOS) inhibitors: lead optimization studies resulting in the identification of N-(1-(2-(methylamino)ethyl)-1,2,3,4-tetrahydroquinolin-6-yl)thiophene-2-carboximidamide as a preclinical development candidate” (J Med Chem, 2012); call rule not given here
pEC50, pIC50: −log10 of the molar value.

Key:
[1] = biological target: Voltage-gated inwardly rectifying potassium channel KCNH2 (Homo sapiens, UniProt Q12809); experiment: Inhibition of human ERG expressed in HEK293 cells at -80 mV holding potential assessed as reduction in tail current amplitude by conventional patch clamp assay; assay type: cell-based
[2] = biological target: Nitric oxide synthase, inducible (Homo sapiens, UniProt P35228); experiment: Inhibition of human recombinant iNOS expressed in Sf9 cells assessed as reduction in conversion of [3H]L-arginine to [3H]L-citrulline preincubated for 15 mins by radiometric method
Nitric oxide synthase 3 = biological target: T1, Nitric oxide synthase 3 (Homo sapiens, UniProt P29474); experiment: Inhibition of human eNOS expressed in Sf9 cells assessed as reduction in conversion of [3H]L-arginine to [3H]L-citrulline preincubated for 15 mins by radiometric method
T1 sequence (P29474 whole entry): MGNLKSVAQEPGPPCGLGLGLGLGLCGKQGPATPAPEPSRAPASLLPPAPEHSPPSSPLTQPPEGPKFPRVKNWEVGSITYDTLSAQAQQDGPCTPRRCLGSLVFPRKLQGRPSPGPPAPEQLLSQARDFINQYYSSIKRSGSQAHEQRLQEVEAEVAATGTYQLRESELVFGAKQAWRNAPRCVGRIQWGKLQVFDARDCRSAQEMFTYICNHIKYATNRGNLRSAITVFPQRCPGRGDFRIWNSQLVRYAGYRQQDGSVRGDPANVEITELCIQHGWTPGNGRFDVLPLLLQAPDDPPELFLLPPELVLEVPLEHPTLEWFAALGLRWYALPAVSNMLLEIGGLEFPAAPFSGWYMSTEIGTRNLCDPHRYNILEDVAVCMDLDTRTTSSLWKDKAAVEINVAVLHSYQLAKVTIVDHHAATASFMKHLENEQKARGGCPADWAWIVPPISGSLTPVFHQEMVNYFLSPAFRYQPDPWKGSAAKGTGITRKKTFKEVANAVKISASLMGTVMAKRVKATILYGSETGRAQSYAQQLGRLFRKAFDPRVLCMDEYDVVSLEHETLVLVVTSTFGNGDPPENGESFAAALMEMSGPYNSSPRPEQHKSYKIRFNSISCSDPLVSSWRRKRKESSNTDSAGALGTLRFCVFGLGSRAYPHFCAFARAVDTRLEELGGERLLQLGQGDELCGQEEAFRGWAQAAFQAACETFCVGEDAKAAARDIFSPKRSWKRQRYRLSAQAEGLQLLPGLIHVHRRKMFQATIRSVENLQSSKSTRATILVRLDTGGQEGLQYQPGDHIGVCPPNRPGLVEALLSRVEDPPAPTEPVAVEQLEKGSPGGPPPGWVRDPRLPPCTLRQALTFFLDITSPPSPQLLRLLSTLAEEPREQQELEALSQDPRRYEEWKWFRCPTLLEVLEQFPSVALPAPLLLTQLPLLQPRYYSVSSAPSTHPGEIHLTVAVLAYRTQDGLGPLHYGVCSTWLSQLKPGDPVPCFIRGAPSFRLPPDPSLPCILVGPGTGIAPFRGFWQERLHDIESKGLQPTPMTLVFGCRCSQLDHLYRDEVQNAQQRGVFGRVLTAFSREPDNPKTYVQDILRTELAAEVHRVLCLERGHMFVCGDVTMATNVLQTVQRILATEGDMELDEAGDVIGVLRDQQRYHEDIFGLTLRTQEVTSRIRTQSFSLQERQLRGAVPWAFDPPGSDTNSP

Nitric oxide synthase 1 = Nitric oxide synthase 1 (Homo sapiens, UniProt P29475); experiment: Inhibition of human nNOS expressed in Sf9 cells assessed as reduction in conversion of [3H]L-arginine to [3H]L-citrulline preincubated for 15 mins by radiometric method
[3] = biological target: T2, Muscarinic acetylcholine receptor M4 (Homo sapiens, UniProt P08173); experiment: Inhibition of human muscarinic M4 receptor by cell based functional assay
T2 sequence (P08173 whole entry): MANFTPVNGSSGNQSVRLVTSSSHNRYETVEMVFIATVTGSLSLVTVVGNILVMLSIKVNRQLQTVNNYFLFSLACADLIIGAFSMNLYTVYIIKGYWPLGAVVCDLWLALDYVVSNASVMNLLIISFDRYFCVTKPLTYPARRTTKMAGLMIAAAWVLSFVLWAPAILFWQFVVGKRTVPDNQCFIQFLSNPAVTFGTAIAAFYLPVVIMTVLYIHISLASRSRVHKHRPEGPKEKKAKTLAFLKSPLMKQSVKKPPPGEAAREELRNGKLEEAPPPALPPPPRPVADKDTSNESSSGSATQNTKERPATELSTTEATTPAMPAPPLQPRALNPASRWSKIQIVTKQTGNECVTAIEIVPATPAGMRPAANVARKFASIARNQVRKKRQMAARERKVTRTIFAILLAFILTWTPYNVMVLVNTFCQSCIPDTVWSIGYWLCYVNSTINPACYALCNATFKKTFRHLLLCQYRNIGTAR

[4] = biological target: Muscarinic acetylcholine receptor M3 (Homo sapiens, UniProt P20309); experiment: Inhibition of human muscarinic M3 receptor by cell based functional assay
[5] = biological target: T3, Muscarinic acetylcholine receptor M2 (Homo sapiens, UniProt P08172); experiment: Inhibition of human muscarinic M2 receptor by cell based functional assay
T3 sequence (P08172 whole entry): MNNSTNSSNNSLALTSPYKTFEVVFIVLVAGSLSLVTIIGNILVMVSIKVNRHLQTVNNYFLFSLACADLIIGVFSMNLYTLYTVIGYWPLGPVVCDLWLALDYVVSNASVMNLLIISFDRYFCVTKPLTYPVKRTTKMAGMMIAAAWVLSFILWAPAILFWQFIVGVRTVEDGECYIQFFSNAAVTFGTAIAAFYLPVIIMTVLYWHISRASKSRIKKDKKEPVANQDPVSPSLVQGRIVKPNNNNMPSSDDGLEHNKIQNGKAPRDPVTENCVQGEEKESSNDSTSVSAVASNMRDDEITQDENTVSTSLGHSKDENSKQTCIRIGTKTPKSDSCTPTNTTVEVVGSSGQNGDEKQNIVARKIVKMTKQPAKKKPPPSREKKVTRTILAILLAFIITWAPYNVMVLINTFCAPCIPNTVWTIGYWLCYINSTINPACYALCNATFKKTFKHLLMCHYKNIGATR

[6] = biological target: T4, Muscarinic acetylcholine receptor M1 (Homo sapiens, UniProt P11229); experiment: Inhibition of human muscarinic M1 receptor by cell based functional assay
T4 sequence (P11229 whole entry): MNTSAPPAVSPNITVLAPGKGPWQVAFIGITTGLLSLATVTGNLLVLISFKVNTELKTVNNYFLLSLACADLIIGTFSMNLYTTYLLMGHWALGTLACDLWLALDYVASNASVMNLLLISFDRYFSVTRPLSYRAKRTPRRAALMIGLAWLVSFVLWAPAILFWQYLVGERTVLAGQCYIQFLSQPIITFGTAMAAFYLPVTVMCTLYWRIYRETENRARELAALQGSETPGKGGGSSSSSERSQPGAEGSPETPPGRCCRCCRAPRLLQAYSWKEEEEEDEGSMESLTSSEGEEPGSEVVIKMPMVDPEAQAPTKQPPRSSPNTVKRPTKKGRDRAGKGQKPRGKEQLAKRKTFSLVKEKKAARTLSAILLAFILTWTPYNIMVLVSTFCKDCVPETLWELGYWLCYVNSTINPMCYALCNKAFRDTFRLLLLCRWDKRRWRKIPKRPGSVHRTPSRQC

[7] = biological target: T5, Adrenergic receptor alpha-2 (Rattus norvegicus, UniProt P22086+P19328+P22909); experiment: Inhibition of rat Alpha-2 adrenergic receptor by cell based functional assay
T5 sequence (P22086 whole entry): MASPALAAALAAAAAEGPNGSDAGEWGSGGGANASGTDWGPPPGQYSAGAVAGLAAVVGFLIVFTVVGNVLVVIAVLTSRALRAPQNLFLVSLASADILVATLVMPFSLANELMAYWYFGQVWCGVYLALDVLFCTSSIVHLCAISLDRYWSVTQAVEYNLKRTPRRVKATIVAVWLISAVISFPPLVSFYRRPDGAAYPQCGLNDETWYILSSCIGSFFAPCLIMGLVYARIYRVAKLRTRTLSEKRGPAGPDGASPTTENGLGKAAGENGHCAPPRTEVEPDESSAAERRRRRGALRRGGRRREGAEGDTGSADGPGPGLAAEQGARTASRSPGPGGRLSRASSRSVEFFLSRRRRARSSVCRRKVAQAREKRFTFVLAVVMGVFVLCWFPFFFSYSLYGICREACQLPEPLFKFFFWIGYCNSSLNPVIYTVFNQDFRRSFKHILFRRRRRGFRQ
T5 sequence (P19328 whole entry): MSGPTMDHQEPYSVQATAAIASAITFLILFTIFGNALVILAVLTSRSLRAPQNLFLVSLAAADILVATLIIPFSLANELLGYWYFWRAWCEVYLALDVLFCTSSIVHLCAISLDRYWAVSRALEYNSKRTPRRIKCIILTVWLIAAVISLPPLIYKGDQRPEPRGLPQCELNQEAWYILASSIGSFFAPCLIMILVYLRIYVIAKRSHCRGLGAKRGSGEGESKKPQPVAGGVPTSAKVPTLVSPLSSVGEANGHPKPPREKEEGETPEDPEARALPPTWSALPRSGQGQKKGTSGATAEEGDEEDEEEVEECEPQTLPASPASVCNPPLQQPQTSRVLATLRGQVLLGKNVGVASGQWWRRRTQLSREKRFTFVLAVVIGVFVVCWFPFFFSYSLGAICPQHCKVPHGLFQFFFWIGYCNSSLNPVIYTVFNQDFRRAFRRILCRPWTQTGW
T5 sequence (P22909 whole entry): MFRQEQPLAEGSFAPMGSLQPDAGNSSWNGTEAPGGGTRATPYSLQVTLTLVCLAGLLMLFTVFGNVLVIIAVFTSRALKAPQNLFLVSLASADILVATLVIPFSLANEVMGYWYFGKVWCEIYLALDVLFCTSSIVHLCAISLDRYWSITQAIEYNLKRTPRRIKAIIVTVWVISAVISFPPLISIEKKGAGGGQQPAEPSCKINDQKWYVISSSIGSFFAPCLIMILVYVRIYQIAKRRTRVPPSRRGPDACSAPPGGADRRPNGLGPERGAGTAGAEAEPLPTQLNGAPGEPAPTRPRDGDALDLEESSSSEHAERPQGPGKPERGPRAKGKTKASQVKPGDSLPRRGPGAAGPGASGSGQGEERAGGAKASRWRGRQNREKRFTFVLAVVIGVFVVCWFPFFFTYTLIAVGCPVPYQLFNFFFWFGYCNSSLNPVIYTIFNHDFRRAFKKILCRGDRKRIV

[8] = Plasma protein binding in human plasma; assay type: ADME, cell-free; conditions: read-out: PPB (converted)
Cytochrome P450 2D6 = Cytochrome P450 2D6 (Homo sapiens, UniProt P10635); experiment: Inhibition of human CYP2D6; assay type: ADME
Cytochrome P450 3A4 = Cytochrome P450 3A4 (Homo sapiens, UniProt P08684); experiment: Inhibition of human CYP3A4; assay type: ADME
Cytochrome P450 2C9 = Cytochrome P450 2C9 (Homo sapiens, UniProt P11712); experiment: Inhibition of human CYP2C9; assay type: ADME
Cytochrome P450 2C19 = Cytochrome P450 2C19 (Homo sapiens, UniProt P33261); experiment: Inhibition of human CYP2C19; assay type: ADME
Cytochrome P450 1A2 = biological target: T6, Cytochrome P450 1A2 (Homo sapiens, UniProt P05177); experiment: Inhibition of human CYP1A2; assay type: ADME
T6 sequence (P05177 whole entry): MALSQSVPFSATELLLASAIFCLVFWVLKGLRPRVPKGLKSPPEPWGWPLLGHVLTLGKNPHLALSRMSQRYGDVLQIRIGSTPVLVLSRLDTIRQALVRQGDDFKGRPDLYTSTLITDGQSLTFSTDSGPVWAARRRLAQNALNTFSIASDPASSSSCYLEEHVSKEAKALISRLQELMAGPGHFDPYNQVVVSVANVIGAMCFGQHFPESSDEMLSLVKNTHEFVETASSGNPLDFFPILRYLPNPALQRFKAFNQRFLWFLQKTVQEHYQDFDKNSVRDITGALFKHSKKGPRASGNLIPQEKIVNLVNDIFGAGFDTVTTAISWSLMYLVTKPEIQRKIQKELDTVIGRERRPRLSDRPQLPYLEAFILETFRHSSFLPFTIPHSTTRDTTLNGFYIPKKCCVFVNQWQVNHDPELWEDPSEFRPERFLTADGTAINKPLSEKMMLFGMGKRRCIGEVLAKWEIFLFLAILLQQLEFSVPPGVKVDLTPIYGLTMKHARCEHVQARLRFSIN

[9] = Plasma clearance in rat at 3 mg/kg, iv or 10 mg/kg, po; assay type: ADME, organism-based
[10] = Oral bioavailability life in rat at 10 mg/kg; assay type: ADME, organism-based; conditions: in vivo
[11] = Volume of distribution at steady state in rat at 3 mg/kg, iv or 10 mg/kg, po; assay type: ADME, organism-based; conditions: in vivo, read-out: Vdss
[12] = AUC in rat at 3 mg/kg, iv or 10 mg/kg, po; assay type: ADME, organism-based; conditions: plasma
[13] = Tmax in rat at 3 mg/kg, iv or 10 mg/kg, po; assay type: ADME, organism-based; conditions: in vivo
[14] = Half life in rat at 10 mg/kg, po; assay type: ADME, organism-based; parameters: dose 10 mg/kg, route oral; conditions: in vivo
[15] = Cmax in rat at 3 mg/kg, iv or 10 mg/kg, po; assay type: ADME, organism-based; conditions: in vivo

Chain of Voltage-gated inwardly rectifying potassium channel KCNH2 (Q12809 whole entry): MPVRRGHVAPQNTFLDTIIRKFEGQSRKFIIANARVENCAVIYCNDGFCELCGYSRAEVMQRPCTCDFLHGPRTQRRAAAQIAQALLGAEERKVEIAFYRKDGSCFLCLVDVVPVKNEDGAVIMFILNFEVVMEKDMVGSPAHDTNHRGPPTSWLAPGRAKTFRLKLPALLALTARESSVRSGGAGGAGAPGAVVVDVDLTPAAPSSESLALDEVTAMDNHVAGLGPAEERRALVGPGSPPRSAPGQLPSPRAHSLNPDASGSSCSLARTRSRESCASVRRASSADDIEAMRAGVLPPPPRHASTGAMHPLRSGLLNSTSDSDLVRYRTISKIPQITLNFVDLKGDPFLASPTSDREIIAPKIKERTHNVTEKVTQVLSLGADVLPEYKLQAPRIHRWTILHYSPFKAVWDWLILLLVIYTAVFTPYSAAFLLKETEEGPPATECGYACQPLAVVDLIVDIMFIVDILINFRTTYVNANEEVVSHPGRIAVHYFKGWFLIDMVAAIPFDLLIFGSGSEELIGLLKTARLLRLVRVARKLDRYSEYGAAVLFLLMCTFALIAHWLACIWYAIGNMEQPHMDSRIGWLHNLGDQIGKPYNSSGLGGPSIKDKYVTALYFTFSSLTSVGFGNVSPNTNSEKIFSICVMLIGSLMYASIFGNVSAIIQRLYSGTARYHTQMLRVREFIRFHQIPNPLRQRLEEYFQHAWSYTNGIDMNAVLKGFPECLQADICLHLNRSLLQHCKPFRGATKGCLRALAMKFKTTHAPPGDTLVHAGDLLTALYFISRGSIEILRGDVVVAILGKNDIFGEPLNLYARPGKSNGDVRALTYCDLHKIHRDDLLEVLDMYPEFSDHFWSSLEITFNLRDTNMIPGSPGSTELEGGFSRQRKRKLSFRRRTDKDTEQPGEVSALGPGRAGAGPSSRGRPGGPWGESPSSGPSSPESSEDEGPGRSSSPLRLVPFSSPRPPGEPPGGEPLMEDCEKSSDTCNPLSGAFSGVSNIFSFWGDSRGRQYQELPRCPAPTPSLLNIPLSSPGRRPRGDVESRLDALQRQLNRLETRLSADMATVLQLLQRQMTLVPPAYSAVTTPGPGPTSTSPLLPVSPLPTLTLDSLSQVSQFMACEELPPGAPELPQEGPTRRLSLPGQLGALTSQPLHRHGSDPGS
Chain of Nitric oxide synthase 1 (P29475 whole entry): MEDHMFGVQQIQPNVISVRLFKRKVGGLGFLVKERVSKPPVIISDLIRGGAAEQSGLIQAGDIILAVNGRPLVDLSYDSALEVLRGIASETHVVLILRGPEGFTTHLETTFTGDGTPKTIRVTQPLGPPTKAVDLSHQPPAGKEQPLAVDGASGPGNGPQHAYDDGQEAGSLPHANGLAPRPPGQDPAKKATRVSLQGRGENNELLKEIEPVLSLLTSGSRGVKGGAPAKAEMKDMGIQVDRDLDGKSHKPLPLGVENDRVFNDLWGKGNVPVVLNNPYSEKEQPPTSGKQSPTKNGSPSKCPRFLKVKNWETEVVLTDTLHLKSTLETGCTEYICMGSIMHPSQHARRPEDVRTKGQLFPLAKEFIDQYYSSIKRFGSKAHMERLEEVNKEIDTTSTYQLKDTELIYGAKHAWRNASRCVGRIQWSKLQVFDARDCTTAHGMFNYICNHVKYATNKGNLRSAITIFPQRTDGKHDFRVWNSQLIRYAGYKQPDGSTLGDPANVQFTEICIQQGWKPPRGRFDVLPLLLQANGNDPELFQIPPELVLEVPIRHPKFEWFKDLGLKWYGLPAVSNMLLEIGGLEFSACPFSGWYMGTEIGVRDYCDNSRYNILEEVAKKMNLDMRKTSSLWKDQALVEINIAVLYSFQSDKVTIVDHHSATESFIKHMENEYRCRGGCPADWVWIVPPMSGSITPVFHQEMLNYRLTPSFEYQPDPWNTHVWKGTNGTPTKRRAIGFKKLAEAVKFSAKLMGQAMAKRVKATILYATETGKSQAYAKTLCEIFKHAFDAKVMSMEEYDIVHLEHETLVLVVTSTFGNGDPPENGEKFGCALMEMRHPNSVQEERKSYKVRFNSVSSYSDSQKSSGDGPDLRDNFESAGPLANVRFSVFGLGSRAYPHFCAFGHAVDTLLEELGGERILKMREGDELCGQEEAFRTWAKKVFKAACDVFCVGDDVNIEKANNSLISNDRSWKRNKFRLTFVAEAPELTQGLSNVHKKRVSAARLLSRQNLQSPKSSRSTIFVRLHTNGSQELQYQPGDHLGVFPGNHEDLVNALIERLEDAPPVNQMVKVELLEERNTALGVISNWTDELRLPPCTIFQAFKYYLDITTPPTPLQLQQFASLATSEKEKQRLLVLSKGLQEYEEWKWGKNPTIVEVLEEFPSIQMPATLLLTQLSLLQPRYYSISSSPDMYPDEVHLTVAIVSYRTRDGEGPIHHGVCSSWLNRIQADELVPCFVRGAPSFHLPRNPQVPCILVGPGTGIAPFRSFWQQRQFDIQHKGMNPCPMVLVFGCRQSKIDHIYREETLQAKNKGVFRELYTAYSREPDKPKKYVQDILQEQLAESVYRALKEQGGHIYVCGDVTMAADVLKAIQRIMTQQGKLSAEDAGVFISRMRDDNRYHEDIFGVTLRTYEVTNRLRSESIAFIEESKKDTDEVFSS
Chain of Cytochrome P450 2D6 (P10635 whole entry): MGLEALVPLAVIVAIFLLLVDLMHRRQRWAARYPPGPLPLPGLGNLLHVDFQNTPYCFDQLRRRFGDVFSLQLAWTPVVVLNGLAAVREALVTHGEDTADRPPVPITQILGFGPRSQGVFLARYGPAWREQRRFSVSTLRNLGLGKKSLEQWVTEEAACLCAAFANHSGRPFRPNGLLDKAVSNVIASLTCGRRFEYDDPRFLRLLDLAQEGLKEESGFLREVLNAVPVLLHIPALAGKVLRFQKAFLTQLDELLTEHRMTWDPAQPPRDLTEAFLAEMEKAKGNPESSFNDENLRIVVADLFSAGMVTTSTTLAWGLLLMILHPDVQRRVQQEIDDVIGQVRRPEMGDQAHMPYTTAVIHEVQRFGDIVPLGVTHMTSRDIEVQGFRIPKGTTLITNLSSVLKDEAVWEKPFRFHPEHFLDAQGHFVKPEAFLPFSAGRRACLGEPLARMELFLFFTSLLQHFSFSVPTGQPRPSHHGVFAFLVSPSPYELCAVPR
Chain of Cytochrome P450 3A4 (P08684 whole entry): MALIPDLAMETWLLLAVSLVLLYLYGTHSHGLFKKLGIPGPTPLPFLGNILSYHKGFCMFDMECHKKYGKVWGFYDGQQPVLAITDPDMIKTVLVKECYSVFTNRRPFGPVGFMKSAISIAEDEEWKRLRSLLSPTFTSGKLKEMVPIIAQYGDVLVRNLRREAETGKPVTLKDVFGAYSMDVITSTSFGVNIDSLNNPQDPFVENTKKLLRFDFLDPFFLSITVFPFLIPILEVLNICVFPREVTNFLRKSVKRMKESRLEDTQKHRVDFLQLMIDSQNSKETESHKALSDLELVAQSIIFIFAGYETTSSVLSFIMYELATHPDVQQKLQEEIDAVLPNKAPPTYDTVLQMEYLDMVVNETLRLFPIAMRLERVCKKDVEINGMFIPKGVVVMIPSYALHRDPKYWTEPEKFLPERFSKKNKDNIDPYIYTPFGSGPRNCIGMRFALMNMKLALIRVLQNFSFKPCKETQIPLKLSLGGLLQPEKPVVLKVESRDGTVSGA
Chain of Cytochrome P450 2C19 (P33261 whole entry): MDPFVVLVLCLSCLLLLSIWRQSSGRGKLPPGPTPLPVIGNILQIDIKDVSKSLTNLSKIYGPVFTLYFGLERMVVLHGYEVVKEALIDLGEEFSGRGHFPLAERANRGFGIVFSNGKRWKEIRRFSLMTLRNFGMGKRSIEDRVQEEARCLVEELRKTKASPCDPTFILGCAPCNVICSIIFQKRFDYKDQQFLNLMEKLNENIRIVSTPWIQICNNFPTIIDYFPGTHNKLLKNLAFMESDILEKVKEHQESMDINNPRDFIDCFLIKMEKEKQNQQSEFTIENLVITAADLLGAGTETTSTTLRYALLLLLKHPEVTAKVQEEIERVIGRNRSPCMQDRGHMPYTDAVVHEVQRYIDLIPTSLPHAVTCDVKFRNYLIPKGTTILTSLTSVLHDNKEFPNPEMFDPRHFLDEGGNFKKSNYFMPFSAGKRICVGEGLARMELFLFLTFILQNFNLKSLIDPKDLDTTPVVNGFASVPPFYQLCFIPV
Chain of Cytochrome P450 2C9 (P11712 whole entry): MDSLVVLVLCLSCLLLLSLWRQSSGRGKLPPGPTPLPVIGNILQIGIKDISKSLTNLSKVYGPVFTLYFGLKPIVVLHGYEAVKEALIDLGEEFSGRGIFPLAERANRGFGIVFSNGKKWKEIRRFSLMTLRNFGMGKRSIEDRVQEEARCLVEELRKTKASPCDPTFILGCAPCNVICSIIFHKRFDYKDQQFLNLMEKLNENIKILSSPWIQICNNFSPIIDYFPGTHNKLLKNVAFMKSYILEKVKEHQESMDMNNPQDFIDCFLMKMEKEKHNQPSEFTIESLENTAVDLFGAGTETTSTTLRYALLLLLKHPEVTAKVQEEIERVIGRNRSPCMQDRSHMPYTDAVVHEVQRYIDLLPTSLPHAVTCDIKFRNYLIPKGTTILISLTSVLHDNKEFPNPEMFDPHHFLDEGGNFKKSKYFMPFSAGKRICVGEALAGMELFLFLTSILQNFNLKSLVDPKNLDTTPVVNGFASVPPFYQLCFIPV

Structure (SMILES): CN1CCC[C@H]1CCN1CCCc2cc(NC(=N)c3cccs3)ccc21
- pIC50 [1]: 5.33

Structure (SMILES): N=C(Nc1ccc2c(c1)CCCN2CCCNCCO)c1cccs1
- pIC50 [1]: < 4.52
- pIC50 [2]: < 4.00
- pIC50 (Nitric oxide synthase 3): 4.41
- pIC50 (Nitric oxide synthase 1): 6.77

Structure (SMILES): CNCCN1CCCc2cc(NC(=N)c3cccs3)ccc21
- pEC50 [3]: < 4.40
- pEC50 [4]: < 4.40
- pEC50 [5]: < 4.40
- pEC50 [6]: < 4.40
- EC50 [7]: > 40 µM
- fraction unbound [8]: 0.6
- inhibition (INH) (Cytochrome P450 2D6): Not Active
- inhibition (INH) (Cytochrome P450 3A4): Not Active
- inhibition (INH) (Cytochrome P450 2C9): Not Active
- inhibition (INH) (Cytochrome P450 2C19): Not Active
- inhibition (INH) (Cytochrome P450 1A2): Not Active
- clearance [9]: 87.7 mL/min/kg
- bioavailability [10]: 59.9%
- Vd [11]: 83.9 L/kg
- AUC [12]: 1160 ng·h/mL
- Tmax [13]: 2 h
- half-life [14]: 8.1 h
- Cmax [15]: 880 nM
